11 molecules from ChEMBL document CHEMBL1201862, “PubChem BioAssay data set” (2004) can be followed below.

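Tested at 5 concentrations; 48 h exposure; 96-well plates; endpoints linearly interpolated, else capped at highest concentration. GI50: concentration for 50% inhibition of growth.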 The source made the active and inactive calls. No stated cut-off is given here; in the data, active = GI50 up to about 1.1 µM and inactive = higher. Bounds are passed on as bounds.

Among the test systems are 786-0; CCRF-CEM; COLO 205; EKVX; HL-60; HOP-62; HOP-92; KM12; LOX IMVI; MDA-N; NCI-H460; OVCAR-3; RXF 393; SF-268; SF-539; SNB-75; T47D; UACC-257; UACC-62.
Holding throughout (assay): NCI tumour cell line growth inhibition, 48 h

Turning to `C=C1CC2(CC(c3ccccc3Cl)OC(c3ccccc3Cl)C2)OC1=O` (stereo not drawn), the GI50 in the assay with 786-0 was 2 µM (inactive); in the assay on CCRF-CEM it was 1.96 µM (inactive); in the assay on COLO 205 it was 2.31 µM (inactive); in the assay on EKVX, 8.34 µM (inactive); in the assay on HL-60 it was 1.05 µM (active); in the assay with HOP-62, 8.05 µM (inactive). Further, the GI50 is 1.87 µM (inactive) in the assay with HOP-92; 2.33 µM (inactive) with KM12; 1.38 µM (inactive) in the assay with LOX IMVI; 1.87 µM (inactive) in the assay on MDA-N; 5.08 µM (inactive) in the assay with NCI-H460; 2.91 µM (inactive) in the assay on OVCAR-3. Moreover, the GI50 is 2.12 µM (inactive) in the assay with RXF 393; 2.27 µM (inactive) in the assay with SF-268; 1.96 µM (inactive) in the assay with SF-539; 3.17 µM (inactive) in the assay on SNB-75; 1.68 µM (inactive) with T47D; 2.08 µM (inactive) with UACC-257. In the assay on UACC-62, the GI50 is 1.94 µM (inactive).

For the molecule `COc1cccc2c1C(=O)c1ccc3cc(CO)cc(O)c3c1C2=O`, the GI50 in the assay with 786-0 is 0.619 µM (active); with CCRF-CEM, 0.204 µM (active); in the assay with COLO 205, 1.53 µM (inactive); in the assay with EKVX, 1.87 µM (inactive); in the assay on HL-60, 0.171 µM (active); in the assay with HOP-62, 2.09 µM (inactive). Besides, the GI50 in the assay on HOP-92 is 0.573 µM (active); in the assay on KM12 it was 0.893 µM (active); in the assay with LOX IMVI, 1.8 µM (inactive); with MDA-N, 0.19 µM (active); with NCI-H460, 0.304 µM (active); in the assay with OVCAR-3, 0.169 µM (active). For the same molecule, the GI50 with RXF 393 was 1.34 µM (inactive); with SF-268 it was 0.815 µM (active); in the assay on SF-539 it was 0.329 µM (active); with SNB-75, 4.29 µM (inactive); in the assay with T47D it was 1.72 µM (inactive); in the assay on UACC-257, 0.0879 µM (active). In addition, the GI50 with UACC-62 is 0.279 µM (active).

In the case of `O=P(O)(O)CN1CCNCCN(CP(=O)(O)O)CC1`, the GI50 is 23 µM (inactive) in the assay on 786-0; 23.6 µM (inactive) in the assay on CCRF-CEM; 3.18 µM (inactive) in the assay on COLO 205; > 80.2 µM (inactive) in the assay with EKVX; 4.21 µM (inactive) in the assay on HL-60; > 100 µM (inactive) in the assay on HOP-62. Moreover, the GI50 is > 34 µM (inactive) in the assay on HOP-92; 28.6 µM (inactive) in the assay on KM12; 25.9 µM (inactive) in the assay with LOX IMVI; 13.6 µM (inactive) with MDA-N; 11.3 µM (inactive) with NCI-H460; > 62.7 µM (inactive) in the assay on OVCAR-3. Also, the GI50 in the assay on RXF 393 is 28.8 µM (inactive); in the assay with SF-268, 75.2 µM (inactive); in the assay on SF-539, > 22.1 µM (inactive); in the assay with SNB-75 it was > 54.5 µM (inactive); in the assay with T47D it was > 68.4 µM (inactive); in the assay with UACC-257 it was > 55.3 µM (inactive). Also, the GI50 in the assay on UACC-62 is 38.8 µM (inactive).

Consider `Nc1ccccc1N/C(=C\C(=O)C(Cl)(Cl)Cl)c1ccccc1`, for which the GI50 is 20.4 µM (inactive) with 786-0; 30.2 µM (inactive) with CCRF-CEM; 27.9 µM (inactive) with COLO 205; 15.2 µM (inactive) in the assay with EKVX; 20.5 µM (inactive) in the assay on HL-60; 23.6 µM (inactive) in the assay with HOP-62. Also, the GI50 with HOP-92 was 14.5 µM (inactive); with KM12, 33.6 µM (inactive); in the assay with LOX IMVI, 19.5 µM (inactive); in the assay on MDA-N, 18.1 µM (inactive); in the assay on NCI-H460, 25.9 µM (inactive); with OVCAR-3, 22.5 µM (inactive). In addition, the GI50 was 19.1 µM (inactive) in the assay with RXF 393; 24.3 µM (inactive) in the assay with SF-268; 18.8 µM (inactive) in the assay on SF-539; 37.8 µM (inactive) with SNB-75; 20.7 µM (inactive) in the assay with T47D; 23.9 µM (inactive) in the assay with UACC-257. Also, the GI50 with UACC-62 is 17.5 µM (inactive).

In the case of `c1ccc2c(c1)nc1n2C2CCC(C2)N1` (stereo not drawn), the GI50 with 786-0, in the assay with CCRF-CEM, with COLO 205, in the assay with EKVX, in the assay on HL-60 and in the assay with HOP-62 was > 10 µM (inactive) throughout. In addition, the GI50 in the assay on HOP-92, with LOX IMVI, in the assay with MDA-N, with NCI-H460, with OVCAR-3 and in the assay with RXF 393 was > 10 µM (inactive) in each case. Moreover, the GI50 is > 10 µM (inactive) in the assay with SF-268; > 10 µM (inactive) in the assay on SF-539; 1.87 µM (inactive) in the assay with SNB-75; > 10 µM (inactive) in the assay with T47D; > 10 µM (inactive) with UACC-257; > 10 µM (inactive) in the assay on UACC-62.

As for `O=C(NO)NCCCl`, the GI50 with 786-0, in the assay on CCRF-CEM, in the assay on COLO 205, in the assay on EKVX, in the assay with HL-60 and in the assay with HOP-62 was > 100 µM (inactive) in each case. Also, the GI50 in the assay with HOP-92, with KM12, with LOX IMVI, in the assay on MDA-N, in the assay on NCI-H460 and in the assay with OVCAR-3 was > 100 µM (inactive) throughout. Besides, the GI50 with RXF 393, in the assay on SF-268, with SF-539, in the assay on SNB-75, with T47D and with UACC-257 was > 100 µM (inactive) in each case. For the same molecule, in the assay with UACC-62, the GI50 was > 100 µM (inactive).

On to `CCOC(=O)C(C(=O)OCC)C1C=CCC2c3ccccc3COCC21` (stereo not drawn), for which the GI50 was > 100 µM (inactive) in the assay on 786-0; 36.1 µM (inactive) in the assay on CCRF-CEM; 23.7 µM (inactive) with COLO 205; 40.5 µM (inactive) in the assay with EKVX; 22.4 µM (inactive) in the assay with HL-60; > 100 µM (inactive) with HOP-62. Also, the GI50 with HOP-92 is > 100 µM (inactive); in the assay on KM12, 33.6 µM (inactive); in the assay with LOX IMVI it was 44.2 µM (inactive); in the assay with MDA-N, 40.7 µM (inactive); with NCI-H460, 62.1 µM (inactive); in the assay on OVCAR-3, 65.5 µM (inactive). For the same molecule, the GI50 is > 100 µM (inactive) in the assay with RXF 393; 67.5 µM (inactive) in the assay on SF-268; > 100 µM (inactive) in the assay on SF-539; 96.6 µM (inactive) in the assay on SNB-75; 30.2 µM (inactive) with T47D; 30.3 µM (inactive) in the assay with UACC-257. The GI50 in the assay with UACC-62 was 26.1 µM (inactive).

As for `CCSc1nnc(Sc2c3ccccc3nc3ccccc23)s1`, the GI50 was 2.84 µM (inactive) in the assay with 786-0; 2.64 µM (inactive) with CCRF-CEM; 2.78 µM (inactive) in the assay on COLO 205; 11.6 µM (inactive) with EKVX; 0.692 µM (active) in the assay with HL-60; > 58.6 µM (inactive) in the assay on HOP-62. Also, the GI50 is 11.7 µM (inactive) with HOP-92; 24.8 µM (inactive) with KM12; 6.7 µM (inactive) in the assay with LOX IMVI; 6.68 µM (inactive) in the assay with MDA-N; 19.6 µM (inactive) in the assay with NCI-H460; 13.1 µM (inactive) in the assay with OVCAR-3. In addition, the GI50 with RXF 393 is 17.2 µM (inactive); in the assay on SF-268, 19.3 µM (inactive); in the assay with SF-539, 7.94 µM (inactive); in the assay on SNB-75, 35.3 µM (inactive); with T47D, 4.22 µM (inactive); in the assay with UACC-257 it was 7.98 µM (inactive). In addition, the GI50 with UACC-62 was 15 µM (inactive).

On to `COc1cc(OC)cc(C(=O)NC2=C(Cl)C(=O)c3ccccc3C2=O)c1`, for which the GI50 in the assay with 786-0 was 2.96 µM (inactive); in the assay on CCRF-CEM, 0.355 µM (active); with COLO 205, 2.52 µM (inactive); in the assay with EKVX, 9.75 µM (inactive); with HL-60, 0.189 µM (active); with HOP-62 it was 12.8 µM (inactive). The GI50 was 1.45 µM (inactive) with HOP-92; 1.62 µM (inactive) with KM12; 1.99 µM (inactive) in the assay on LOX IMVI; 1.91 µM (inactive) in the assay on MDA-N; 2.34 µM (inactive) in the assay with NCI-H460; 1.88 µM (inactive) in the assay with OVCAR-3. The GI50 in the assay on RXF 393 is 1.04 µM (active); with SF-268 it was 6.12 µM (inactive); in the assay with SF-539, 4.45 µM (inactive); in the assay on SNB-75, 2.67 µM (inactive); with T47D, 1.46 µM (inactive); in the assay with UACC-257, 1.99 µM (inactive). For the same molecule, the GI50 with UACC-62 is 0.361 µM (active).

For `CCOC(=O)c1c(C)[nH]c2c1c(CN(C)C)c(O)c1nc(C)c(C)nc12`, the GI50 was 16.1 µM (inactive) in the assay on 786-0; 10.8 µM (inactive) in the assay with CCRF-CEM; 14.5 µM (inactive) in the assay on COLO 205; 27.3 µM (inactive) in the assay with EKVX; 8.09 µM (inactive) in the assay with HL-60; 20 µM (inactive) with HOP-62. The GI50 was 31.8 µM (inactive) in the assay with HOP-92; 28.2 µM (inactive) with KM12; 19.4 µM (inactive) with LOX IMVI; 19.2 µM (inactive) with MDA-N; 18.4 µM (inactive) in the assay on NCI-H460; 26.5 µM (inactive) in the assay on OVCAR-3. The GI50 in the assay on RXF 393 is 20.8 µM (inactive); in the assay with SF-268, 27.3 µM (inactive); in the assay with SF-539, 18 µM (inactive); in the assay on SNB-75 it was 23.3 µM (inactive); with T47D, 27 µM (inactive); in the assay on UACC-257, 23.5 µM (inactive). Moreover, in the assay with UACC-62, the GI50 is 15.6 µM (inactive).

Take `CC(=O)Nc1ccc2c3c(cc(O)c2c1)N(C(=O)CCCCCCC(=O)N1CC(CCl)c2c1cc(O)c1cc(NC(C)=O)ccc21)CC3CCl` (stereo not drawn): the GI50 in the assay with 786-0 was < 0.01 µM (active); with CCRF-CEM it was < 0.01 µM (active); in the assay on COLO 205, 0.0105 µM (active); in the assay on EKVX, 0.0505 µM (active); in the assay with HL-60 it was < 0.01 µM (active); with HOP-62, < 0.0116 µM (active). In addition, the GI50 in the assay with HOP-92 is < 0.0117 µM (active); in the assay with KM12, 0.0249 µM (active); in the assay with LOX IMVI, < 0.01 µM (active); in the assay on MDA-N, < 0.01 µM (active); in the assay with NCI-H460 it was < 0.01 µM (active); in the assay with OVCAR-3, < 0.01 µM (active). The GI50 with RXF 393 is < 0.01 µM (active); in the assay on SF-268, < 0.01 µM (active); in the assay on SF-539, < 0.01 µM (active); in the assay on SNB-75 it was < 0.01 µM (active); in the assay with T47D, < 0.01 µM (active); in the assay with UACC-257, 0.0104 µM (active). The GI50 in the assay with UACC-62 is < 0.01 µM (active).
